Results as given in US11299510B2, “Substituted pyridopyrrolopyrimidine ribonucleosides for therapeutic uses” (USTAV ORGANICKE CHEMIE A BIOCHEMIE AV CR, V.V.I., priority 2018, dated 2022).

Tests used:
Type in all cases: cell-based
[1] = test system: CEM-DNR-bulk (T-lymfoblastic leukemia, doxorubicin resistant); experiment: cytotoxic MTS test, CEM-DNR; details: Homo sapiens; CEM-DNR cells
From the text: (§1) To evaluate the antitumor activity of newly prepared compounds for in vitro conditions, we used cytotoxic MTS test (Nosková V. et al., Neoplasma 2002, 49, 418-425) on cell lines derived from normal tissues or tumors. Specifically, cell lines K562 (human acute myeloid leukemia); K562-Tax (human acute myeloid leukemia, paclitaxel resistant subline, overexpress multiple drug resistant protein PgP); CEM (T-lymfoblastic leukemia); CEM-DNR-bulk (T-lymfoblastic leukemia, doxorubicin resistant); A549 (human lung adenocarcinoma); HCT116p53 wt (human colorectal cancer, wild-type); HCT116p53−/−(human colorectal cancer, mutant p53) a U2OS (human bone osteosarcoma) were used. Express characteristics, susceptibility profiles of classic antitumor drugs as well as methodology of cytotoxic MTS test have been repeatedly published (Denizot, F.; Lang, R., J. Immunol. Meth. 1986, 89, 271-277; Noskova, V., see above; Šarek J. et al., J, Med. Chem., 2003, 46, 5402-5415).

[2] = test system: K562 (human acute myeloid leukemia); experiment: cytotoxic MTS test, K562; details: K562 cells
From the text: as §1

HeLa = experiment: cytotoxic MTS test, HeLa; details: Homo sapiens; HeLa cells
[3] = test system: HCT116p53 wt (human colorectal cancer, wild-type); experiment: cytotoxic MTS test, HCT116; details: HCT-116, HCT116 cells
From the text: as §1

CCRF-CEM = experiment: cytotoxic MTS test, CCRF-CEM; details: Homo sapiens; CCRF-CEM cells
From the text: as §1

HL 60 = experiment: cytotoxic MTS test, HL 60; details: Homo sapiens; HL 60 cells
[4] = test system: K562-Tax (human acute myeloid leukemia, paclitaxel resistant subline); experiment: cytotoxic MTS test, K562-TAX; details: K562-TAX cells
From the text: as §1

[5] = test system: MRC-5 (normal human fibroblasts); experiment: cytotoxic MTS test, MRC-5; details: MRC5, MRC-5 cells
[6] = test system: HCT116p53−/− (human colorectal cancer, mutant p53); experiment: cytotoxic MTS test, HCT116p53; details: HCT116p53 cells
From the text: as §1

[7] = test system: U2OS (human bone osteosarcoma); experiment: cytotoxic MTS test, U2OS; details: U2OS cells
From the text: as §1

Hep G2 = experiment: cytotoxic MTS test, Hep G2; details: Homo sapiens, HepG2; Hep G2 cells
[8] = test system: CEM (T-lymfoblastic leukemia); experiment: cytotoxic MTS test, CEM; details: Homo sapiens, CCRF-CEM; CEM cells
From the text: as §1

[9] = test system: A549 (human lung adenocarcinoma); experiment: cytotoxic MTS test, A549; details: A549 cells
From the text: as §1

[10] = test system: BJ (normal human fibroblasts); experiment: cytotoxic MTS test, BJ; details: BJ cells

| Compound | IC50 [1] [µM] | IC50 [2] [µM] | IC50 (HeLa) [µM] | IC50 [3] [µM] | IC50 (CCRF-CEM) [µM] | IC50 (HL 60) [µM] | IC50 [4] [µM] | IC50 [5] [µM] | IC50 [6] [µM] | IC50 [7] [µM] | IC50 (Hep G2) [µM] | IC50 [8] [µM] | IC50 [9] [µM] | IC50 [10] [µM] |
| --- | --- | --- | --- | --- | --- | --- | --- | --- | --- | --- | --- | --- | --- | --- |
| COc1ncnc2c1c1ncccc1n2[C@@H]1O[C@H](CO)[C@@H](O)[C@H]1O [Compound 1a, 4-methoxy-9-(β-D-ribofuranosyl)-9H-pyrido[2′,3′:4,5]pyrrolo[2,3-d]pyrimidine] | > 50 | > 50 | > 50 | > 50 | > 50 | > 50 | > 50 | > 50 | > 50 | > 50 | > 50 | > 50 | > 50 | > 50 |
| CSc1ncnc2c1c1ncccc1n2[C@@H]1O[C@H](CO)[C@@H](O)[C@H]1O [Compound 1b, 4-(methylsulfanyl)-9-(β-D-ribofuranosyl)-9H-pyrido[2′,3′:4,5]pyrrolo[2,3-d]pyrimidine] | > 50 | > 50 | > 50 | > 50 | > 50 | > 50 | > 50 | > 50 | > 50 | > 50 | > 50 | > 50 | > 50 | > 50 |
| Nc1ncnc2c1c1ncccc1n2[C@@H]1O[C@H](CO)[C@@H](O)[C@H]1O [Compound 1c, 4-amino-9-(β-D-ribofuranosyl)-9H-pyrido[2′,3′:4,5]pyrrolo[2,3-d]pyrimidine] | > 50 | 25 to 50 | > 50 | 25 to 50 | 0.2 to 0.9 | 0.2 to 0.9 | > 50 | > 50 | 25 to 50 | 0.9 to 10 | 0.9 to 10 | > 50 | > 50 | 0.9 to 10 |
| Cc1ncnc2c1c1ncccc1n2[C@@H]1O[C@H](CO)[C@@H](O)[C@H]1O [Compound 1d, 4-methyl-9-(β-D-ribofuranosyl)-9H-pyrido[2′,3′:4,5]pyrrolo[2,3-d]pyrimidine] | > 50 | 10 to 25 | > 50 | > 50 | 0.2 to 0.9 | > 50 | > 50 | > 50 | > 50 | 0.9 to 10 | > 50 | > 50 | > 50 | > 50 |
| CN(C)c1ncnc2c1c1ncccc1n2[C@@H]1O[C@H](CO)[C@@H](O)[C@H]1O [Compound 1e, 4-(dimethylamino)-9-(β-D-ribofuranosyl)-9H-pyrido[2′,3′:4,5]pyrrolo[2,3-d]pyrimidine] | > 50 | > 50 | > 50 | > 50 | > 50 | > 50 | > 50 | > 50 | > 50 | > 50 | > 50 | > 50 | > 50 | > 50 |
| OC[C@H]1O[C@@H](n2c3cccnc3c3c(-c4ccco4)ncnc32)[C@H](O)[C@@H]1O [Compound 1f, 4-(furan-2-yl)-9-(β-D-ribofuranosyl)-9H-pyrido[2′,3′:4,5]pyrrolo[2,3-d]pyrimidine] | > 50 | > 50 | > 50 | > 50 | > 50 | > 50 | > 50 | > 50 | > 50 | > 50 | > 50 | > 50 | > 50 | > 50 |
| OC[C@H]1O[C@@H](n2c3cccnc3c3c(-c4ccoc4)ncnc32)[C@H](O)[C@@H]1O [Compound 1g, 4-(furan-3-yl)-9-(β-D-ribofuranosyl)-9H-pyrido[2′,3′:4,5]pyrrolo[2,3-d]pyrimidine] | > 50 | > 50 | > 50 | > 50 | > 50 | > 50 | > 50 | > 50 | > 50 | > 50 | > 50 | > 50 | > 50 | > 50 |
| OC[C@H]1O[C@@H](n2c3cccnc3c3c(-c4ccsc4)ncnc32)[C@H](O)[C@@H]1O [Compound 1h, 4-(thiophen-3-yl)-9-(β-D-ribofuranosyl)-9H-pyrido[2′,3′:4,5]pyrrolo[2,3-d]pyrimidine] | > 50 | > 50 | > 50 | > 50 | > 50 | > 50 | > 50 | > 50 | > 50 | > 50 | > 50 | > 50 | > 50 | > 50 |
| OC[C@H]1O[C@@H](n2c3cccnc3c3c(-c4cc5ccccc5o4)ncnc32)[C@H](O)[C@@H]1O [Compound 1i, 4-(benzofuran-2-yl)-9-(β-D-ribofuranosyl)-9H-pyrido[2′,3′:4,5]pyrrolo[2,3-d]pyrimidine] | > 50 | > 50 | > 50 | > 50 | 10 to 25 | > 50 | > 50 | > 50 | > 50 | > 50 | > 50 | > 50 | > 50 | > 50 |
| COc1ncnc2c1c1ccncc1n2[C@@H]1O[C@H](CO)[C@@H](O)[C@H]1O [Compound 2a, 4-methoxy-9-(β-D-ribofuranosyl)-9H-pyrido[4′,3′:4,5]pyrrolo[2,3-d]pyrimidine] | 0.9 to 10 | 0.9 to 10 | 0.9 to 10 | 0.9 to 10 | 0.2 to 0.9 | 0.2 to 0.9 | 0.9 to 10 | > 50 | 0.9 to 10 | 0.9 to 10 | 0.9 to 10 | 0.9 to 10 | > 50 | > 50 |
| CSc1ncnc2c1c1ccncc1n2[C@@H]1O[C@H](CO)[C@@H](O)[C@H]1O [Compound 2b, 4-(methylsulfanyl)-9-(β-D-ribofuranosyl)-9H-pyrido[4′,3′:4,5]pyrrolo[2,3-d]pyrimidine] | 0.9 to 10 | 0.2 to 0.9 | 0.9 to 10 | 0.2 to 0.9 | 0.2 to 0.9 | 0.2 to 0.9 | 0.9 to 10 | > 50 | 0.2 to 0.9 | 0.2 to 0.9 | 0.9 to 10 | 0.2 to 0.9 | 10 to 25 | > 50 |
| Nc1ncnc2c1c1ccncc1n2[C@@H]1O[C@H](CO)[C@@H](O)[C@H]1O [Compound 2c, 4-amino-9-(β-D-ribofuranosyl)-9H-pyrido[4′,3′:4,5]pyrrolo[2,3-d]pyrimidine] | 0.9 to 10 | 0.2 to 0.9 | 0.9 to 10 | 0.2 to 0.9 | 0.2 to 0.9 | 0.2 to 0.9 | 0.9 to 10 | > 50 | 0.2 to 0.9 | 0.2 to 0.9 | 0.2 to 0.9 | 0.2 to 0.9 | 0.9 to 10 | 0.9 to 10 |
| Cc1ncnc2c1c1ccncc1n2[C@@H]1O[C@H](CO)[C@@H](O)[C@H]1O [Compound 2d, 4-methyl-9-(β-D-ribofuranosyl)-9H-pyrido[4′,3′:4,5]pyrrolo[2,3-d]pyrimidine] | 0.9 to 10 | 0.9 to 10 | 0.9 to 10 | 0.9 to 10 | 0.2 to 0.9 | 0.2 to 0.9 | 0.9 to 10 | > 50 | 0.9 to 10 | 0.9 to 10 | 0.9 to 10 | 0.2 to 0.9 | > 50 | 0.9 to 10 |
| CN(C)c1ncnc2c1c1ccncc1n2[C@@H]1O[C@H](CO)[C@@H](O)[C@H]1O [Compound 2e, 4-(dimethylamino)-9-(β-D-ribofuranosyl)-9H-pyrido[4′,3′:4,5]pyrrolo[2,3-d]pyrimidine] | > 50 | > 50 | > 50 | > 50 | > 50 | > 50 | > 50 | > 50 | > 50 | > 50 | > 50 | > 50 | > 50 | > 50 |
